{"source": "patent US20180117103A1", "about": "“COMPOSITION FOR ANTIOXIDATION AND IMPROVEMENT OF SKIN CONDITIONS” (CELL BIOTECH CO., LTD., priority 2016, published 2018)", "key": {"E. faecium": {"test_system": "E. faecium", "experiment": "Distribution of E. faecium in feces of white rats by real-time PCR (Test Example 4)", "assay_type": "in vivo, white rats (male, SD rats)", "settings": "intestinal feces at 5 weeks after oral administration", "procedure": "(§1) In order to examine the change in intestinal microorganisms by administration of probiotics and vitamin C according to the present invention, expression of genesspecific for L. rhamnosus and E. faecium in the test groups (G1 to G4) prepared in Example 1 was measured.\n(§2) At 5 weeks after oral administration in Example 1, intestinal feces were isolated from the rats of G1 to G4, and DNA was extracted using an MP bio stool kit according to the manufacturer's protocol. Using the extracted DNA, real-time polymerase chain reaction (PCR) was performed using primers specific for L. rhamnosus and E. faecium. The results are shown in FIGS. 4 and 5 and Tables 6 and 7 below."}, "[1]": {"test_system": "total antioxidant capacity (TAS)", "experiment": "Total antioxidant capacity (TAS) in serum of white rats, colorimetric kit (Test Example 2)", "assay_type": "in vivo, white rats (male, SD rats)", "settings": "oral administration for 5 weeks", "procedure": "In order to examine the change in antioxidant activity by administration of probiotics and vitamin C (group G4) according to the present invention, antioxidant enzyme activity and serum vitamin levels were measured in the following manner. Blood was collected from the orbits of the white rats of Example 1. The collected blood was incubated at room temperature for 2 hours, and then centrifuged at 1500×g at 4° C. for 15 minutes to separate sera, and the separated sera were stored at −80° C. until use in experiments. In order to measure the defense system composed of antioxidant vitamins, non-enzymatic antioxidant substances and antioxidant enzymes, which defend against the toxicity of reactive oxygen species and total antioxidant capacity (TAS) values were measured using a kit of measuring antioxidant activity based on a colorimetry assay."}, "[2]": {"experiment": "Weight change of white rats on oral administration of probiotics and vitamin C (Test Example 1)", "assay_type": "in vivo, white rats (male, SD rats)", "settings": "N = 5", "procedure": "In order to verify the effect of a combination of probiotics and vitamin C on anti-aging and the like, 4-week-old white rats (male, SD rats, Saeronbio, Korea) were purchased. Two of the animals were housed in each polypropylene cage and acclimated for one week while they were allowed access to feed and water ad libitum. In addition, the animals were housed at a temperature of 24±2° C. and a relative humidity of 40±20% with a 12-hr light/12-hr dark cycle. During the acclimation period, the health of the rats was checked, and among these rats, animals whose activity was not reduced were selected and used in subsequent tests. […] In order to examine the stability and phenotype of each white rat when the probiotics and the vitamin C were administered to the test animals for 5 weeks in Example 1, the weight change patterns of the white rats during the period from the day before administration to 5 weeks after the start of administration in Example 1 were measured, and the results of the measurement are shown in Table 2 below."}, "L. rhamnosus": {"test_system": "L. rhamnosus", "experiment": "Distribution of L. rhamnosus in feces of white rats by real-time PCR (Test Example 4)", "assay_type": "in vivo, white rats (male, SD rats)", "settings": "intestinal feces at 5 weeks after oral administration", "procedure": "as §1, §2"}, "[3]": {"experiment": "Vitamin C levels in sera of white rats by HPLC", "assay_type": "in vivo", "settings": "male, SD, rat, 1000 mg/head, serum of white rats, oral administration for 5 weeks, read-out: Vit C (serum vitamin C level), Mean ± SD", "procedure": "Blood was collected from the orbits of the white rats of Example 1. The collected blood was incubated at room temperature for 2 hours, and then centrifuged at 1500×g at 4° C. for 15 minutes to separate sera, and the separated sera were stored at −80° C. until use in experiments.\nFor measurement of vitamin C levels in the sera of the white rats prepared in Example 1, high-performance liquid chromatography (HPLC) analysis was performed using a vitamin C reagent kit, and the results of the analysis are shown in FIG. 3 and Table 5 below."}, "[4]": {"test_system": "superoxide dismutase (SOD)", "experiment": "Activity of superoxide dismutase in serum of white rats, colorimetric assay kit (Test Example 2)", "assay_type": "in vivo, white rats (male, SD rats)", "settings": "oral administration for 5 weeks", "procedure": "In order to examine the change in antioxidant activity by administration of probiotics and vitamin C (group G4) according to the present invention, antioxidant enzyme activity and serum vitamin levels were measured in the following manner. Blood was collected from the orbits of the white rats of Example 1. The collected blood was incubated at room temperature for 2 hours, and then centrifuged at 1500×g at 4° C. for 15 minutes to separate sera, and the separated sera were stored at −80° C. until use in experiments. For measurement of the activity of antioxidant enzyme in the separated sera, the activity of superoxide dismutase in the sera was measured using a superoxide dismutase assay kit based on a colorimetry assay, and the results of the measurement are shown in FIG. 1 and Table 3 below."}}}
{"molecule": "O=C1O[C@H]([C@@H](O)CO)C(O)=C1O", "note": "[G3, L-ascorbic acid]", "values": [{"measurement": "E. faecium, Mean ± SD", "setting": "E. faecium", "value": "7.032 ± 0.1134", "unit": "Nlog10/1 g feces"}, {"measurement": "TAS, Mean ± SD", "setting": "[1]", "value": "1.568 ± 0.01708", "unit": "mmol/L"}, {"measurement": "Change in weight, Mean", "setting": "[2]; 0 week (day before administration), oral", "value": 137.6, "unit": "g"}, {"measurement": "Change in weight, Mean", "setting": "[2]; 1 week of oral administration", "value": 178.8, "unit": "g"}, {"measurement": "Change in weight, Mean", "setting": "[2]; 2 weeks of oral administration", "value": 237.8, "unit": "g"}, {"measurement": "Change in weight, Mean", "setting": "[2]; 3 weeks of oral administration", "value": 293.0, "unit": "g"}, {"measurement": "Change in weight, Mean", "setting": "[2]; 4 weeks of oral administration", "value": 338.1, "unit": "g"}, {"measurement": "Change in weight, Mean", "setting": "[2]; 5 weeks of oral administration", "value": 354.1, "unit": "g"}, {"measurement": "L. rhamnosus, Mean ± SD", "setting": "L. rhamnosus", "value": "7.340 ± 0.09975", "unit": "Nlog10/1 g feces"}, {"measurement": "concentration at 5 weeks", "setting": "[3]", "value": "32.5 ± 1.29", "unit": "µM"}, {"measurement": "SOD, Mean ± SD", "setting": "[4]", "value": "6.248 ± 0.08967", "unit": "U/L"}]}
